Tests used:
[1] = system: total antioxidant capacity (TAC); assay: Serum total antioxidant capacity (TAC), Example 1; assay type: in vivo, dog; settings: for Change in TAC, post-run minus pre-run: following 15 mile long run at 13 wk, mean ± SEM
Procedure: Blood Analysis: Serum samples were taken at three different times from each dog during the 90 day period. The blood samples were collected as follows: 1.) just prior to scanning each dog for body composition at the beginning of the study, 2.) prior to the long run on the 13th week, and 3.) following the long run on the 13th week. The serum samples were analyzed for Phosphocreatine Kinase and Canine Myoglobin to determine the amount of muscle protein leakage that occurred following the long run and TBARS and Total Antioxidant Capacity (TAC) were determined to evaluate the antioxidant status of each of the test dogs during the exercise program. The final blood sample was taken 24 hr after the long run to obtain maximum protein leakage based on previous similar types of exercise research with human athletes. Biomarkers and Assay Methods: Blood was drawn from each dog using a serum separator tube at three different times during the 90 day period: 1.) just prior to scanning each dog for body composition at the beginning of the study, 2.) prior to the long run on the 13th week, and 3.) following the long run on the 13th week. The final blood sample was taken 24 hr after the long run to obtain maximum protein leakage based on previous similar types of exercise research with human athletes. Each time after the blood was drawn it was allowed to clot before being centrifuged for 15 min at 2000 g at 4° C. Serum was aliquoted into 1.5 mL microcentrifuge tubes and stored at −80° C. until assays were ran following the end of the study. Creatine kinase (CK) and canine myoglobin were measured to determine the amount of muscle protein leakage that occurred following the long run. Thiobarbituric acid reactive substances (TBARS) and total antioxidant capacity (TAC) were measured to evaluate the antioxidant status of each of the test dogs during the exercise program. Serum samples were analyzed for total antioxidant capacity (TAC) and thiobarbituric acid reactive substances (TBARS) using commercially available colorimetric kits supplied by Cayman Chemical Company (Ann Arbor, Mich.) per manufacturer instructions. Serum canine myoglobin levels were determined using a commercially available ELISA supplied by Innovate Research (Novi, Mich.) per manufacturer instructions. Creatine kinase activity was determined colorimetrically using a commercially available kit supplied by BioVision (San Francisco, Calif.).

[2] = Body composition by DEXA scan, Example 2 part one; assay type: in vivo, dog; settings: for Lean mass (LM) change / Total tissue mass change: over 14 week study
Text: Each dog was also scanned for body composition as described in Example 1 just prior to the beginning of the study and twenty-four hours following the final endurance run.

[3] = Ex.2 part one, 250 mg/d, both sexes
[4] = Ex.2 part one, 250 mg/d, females

Compound: C[N+](C)(C)C[C@H](O)CC(=O)[O-] [L-carnitine]
- TAC Least Sq Mean ([1]; Baseline): 0.1066 mM Trolox Equiv
- TAC Least Sq Mean ([1]; Baseline, F): 0.1064 mM Trolox Equiv
- TAC Least Sq Mean ([1]; Baseline, M): 0.1067 mM Trolox Equiv
- TAC, serum, Mean ([1]; Ex.1, 250 mg/d, Baseline, both sexes): 0.107 mM Trolox Equiv
- TAC, serum, Mean ([1]; Ex.1, 250 mg/d, Baseline, females): 0.106 mM Trolox Equiv
- TAC, serum, Mean ([1]; Ex.1, 250 mg/d, Baseline, males): 0.107 mM Trolox Equiv
- TAC, serum, Mean ([1]; Ex.1, 250 mg/d, Post-run, both sexes): 0.087 mM Trolox Equiv
- TAC, serum, Mean ([1]; Ex.1, 250 mg/d, Post-run, females): 0.069 mM Trolox Equiv
- TAC, serum, Mean ([1]; Ex.1, 250 mg/d, Post-run, males): 0.102 mM Trolox Equiv
- TAC, serum, Mean ([1]; Ex.1, 250 mg/d, Pre-run, both sexes): 0.118 mM Trolox Equiv
- TAC, serum, Mean ([1]; Ex.1, 250 mg/d, Pre-run, females): 0.106 mM Trolox Equiv
- TAC, serum, Mean ([1]; Ex.1, 250 mg/d, Pre-run, males): 0.128 mM Trolox Equiv
- Effect on TAC of the test dogs ([1]; Ex.1, 250 mg/d, during the study, vs control): did not have a significant effect
- Change in TAC, post-run minus pre-run ([1]; Ex.1, 250 mg/d, both sexes): −0.03 ± 0.01 n = 20 mM Trolox Equiv
- Change in TAC, post-run minus pre-run ([1]; Ex.1, 250 mg/d, females): −0.04 ± 0.01 n = 9 mM Trolox Equiv
- Change in TAC, post-run minus pre-run ([1]; Ex.1, 250 mg/d, males): −0.03 ± 0.01 n = 11 mM Trolox Equiv
- TAC Least Sq Mean ([1]; Post-run): 0.08522 mM Trolox Equiv
- TAC Least Sq Mean ([1]; Post-run, F): 0.06866 mM Trolox Equiv
- TAC Least Sq Mean ([1]; Post-run, M): 0.1018 mM Trolox Equiv
- TAC Least Sq Mean ([1]; Pre-run): 0.1171 mM Trolox Equiv
- TAC Least Sq Mean ([1]; Pre-run, F): 0.1063 mM Trolox Equiv
- TAC Least Sq Mean ([1]; Pre-run, M): 0.128 mM Trolox Equiv
- TAC Least Sq Mean ([1]; Treatment * Sex, F): 0.1064 mM Trolox Equiv
- TAC Least Sq Mean ([1]; Treatment * Sex, M): 0.1067 mM Trolox Equiv
- TAC Least Sq Mean ([1]; Treatment level, all dogs): 0.1066 mM Trolox Equiv
- Total Antioxidant capacity, mixed model Estimate, term Time[Post-run-Pre-run] * Treatment[L-carnitine] ([1]; serum, model term): −0.001428
- Total Antioxidant capacity, mixed model Estimate, term Time[Post-run-Pre-run] * Treatment[L-carnitine] * Sex[F] ([1]; serum, model term): −0.001227
- Total Antioxidant capacity, mixed model Estimate, term Time[Pre-run-Baseline] * Treatment[L-carnitine] ([1]; serum, model term): −0.00085
- Total Antioxidant capacity, mixed model Estimate, term Time[Pre-run-Baseline] * Treatment[L-carnitine] * Sex[F] ([1]; serum, model term): 0.001958
- Total Antioxidant capacity, mixed model Estimate, term Treatment[L-carnitine] ([1]; serum, model term): 0.001356
- Total Antioxidant capacity, mixed model Estimate, term Treatment[L-carnitine] * Sex[F] ([1]; serum, model term): 0.001671
- Increase in % fat mass ([2]; Ex.2 part one, 250 mg/d, females, vs 3.01% control females (p=0.3893)): 1.58%
- Lean mass (LM) change [2, 3]: 0.68 kg
- Total tissue mass change [2, 3]: 0.74 kg
- Lean mass (LM) change [2, 4]: 0.45 kg
- Total tissue mass change [2, 4]: 0.78 kg
- Lean mass (LM) change ([2]; Ex.2 part one, 250 mg/d, males): 0.91 kg
- Total tissue mass change ([2]; Ex.2 part one, 250 mg/d, males): 0.70 kg
- % Fat ([2]; Female, Change): 1.58 ± 1.29%
- BMC ([2]; Female, Change): 9.54 ± 6.72 g
- BMD ([2]; Female, Change): 0.0029 ± 0.005 g/cm2
- Fat ([2]; Female, Change): 0.56 ± 0.35 kg
- Lean Mass ([2]; Female, Change): 0.45 ± 0.21 kg
- Total Tissue ([2]; Female, Change): 0.78 ± 0.27 kg
- % Fat ([2]; Female, Final): 18.43 ± 1.75%
- BMC ([2]; Female, Final): 716.5 ± 30.63 g
- BMD ([2]; Female, Final): 0.58 ± 0.01 g/cm2
- Fat ([2]; Female, Final): 4.62 ± 0.57 kg
- Lean Mass ([2]; Female, Final): 19.95 ± 0.65 kg
- Total Tissue ([2]; Female, Final): 24.34 ± 0.94 kg
- % Fat ([2]; Female, Initial): 16.85 ± 2.1%
- BMC ([2]; Female, Initial): 706.96 ± 30.19 g
- BMD ([2]; Female, Initial): 0.58 ± 0.01 g/cm2
- Fat ([2]; Female, Initial): 4.07 ± 0.59 kg
- Lean Mass ([2]; Female, Initial): 19.49 ± 0.69 kg
- Total Tissue ([2]; Female, Initial): 23.56 ± 0.86 kg
- % Fat ([2]; Male, Change): 0.49 ± 0.61%
- BMC ([2]; Male, Change): 6.54 ± 6.57 g
- BMD ([2]; Male, Change): 0.011 ± 0.005 g/cm2
- Fat ([2]; Male, Change): 0.22 ± 0.2 kg
- Lean Mass ([2]; Male, Change): 0.91 ± 0.22 kg
- Total Tissue ([2]; Male, Change): 0.7 ± 0.19 kg
- % Fat ([2]; Male, Final): 14.81 ± 1.05%
- BMC ([2]; Male, Final): 927.39 ± 25.32 g
- BMD ([2]; Male, Final): 0.65 ± 0.01 g/cm2
- Fat ([2]; Male, Final): 4.56 ± 0.36 kg
- Lean Mass ([2]; Male, Final): 26.54 ± 0.71 kg
- Total Tissue ([2]; Male, Final): 30.67 ± 0.72 kg
- % Fat ([2]; Male, Initial): 14.31 ± 1.16%
- BMC ([2]; Male, Initial): 920.86 ± 25.96 g
- BMD ([2]; Male, Initial): 0.64 ± 0.01 g/cm2
- Fat ([2]; Male, Initial): 4.34 ± 0.42 kg
- Lean Mass ([2]; Male, Initial): 25.63 ± 0.58 kg
- Total Tissue ([2]; Male, Initial): 29.97 ± 0.75 kg
- % Fat ([2]; all dogs, Change): 1.04 ± 0.71%
- BMC ([2]; all dogs, Change): 8.04 ± 4.62 g
- BMD ([2]; all dogs, Change): 0.007 ± 0.003 g/cm2
- Fat ([2]; all dogs, Change): 0.39 ± 0.2 kg
- Lean Mass ([2]; all dogs, Change): 0.68 ± 0.16 kg
- Total Tissue ([2]; all dogs, Change): 0.74 ± 0.16 kg
- % Fat ([2]; all dogs, Final): 16.62 ± 1.06%
- BMC ([2]; all dogs, Final): 821.95 ± 28.14 g
- BMD ([2]; all dogs, Final): 0.61 ± 0.01 g/cm2
- Fat ([2]; all dogs, Final): 4.59 ± 0.33 kg
- Lean Mass ([2]; all dogs, Final): 23.24 ± 0.79 kg
- Total Tissue ([2]; all dogs, Final): 27.5 ± 0.84 kg
- % Fat ([2]; all dogs, Initial): 15.58 ± 1.2%
- BMC ([2]; all dogs, Initial): 813.91 ± 28.38 g
- BMD ([2]; all dogs, Initial): 0.608 ± 0.01 g/cm2
- Fat ([2]; all dogs, Initial): 4.2 ± 0.35 kg
- Lean Mass ([2]; all dogs, Initial): 22.56 ± 0.74 kg
- Total Tissue ([2]; all dogs, Initial): 26.76 ± 0.83 kg

Reference: US10016382B2, “Method for decreasing skeletal muscle damage and/or oxidative stress in mammals” (LONZA INC., priority 2014, dated 2018)
